Data as given in paper PMC4303209, “A novel phosphatidylinositol 3-kinase (PI3K) inhibitor directs a potent FOXO-dependent, p53-independent cell cycle arrest phenotype characterized by the differential induction of a subset of FOXO-regulated genes” (Breast Cancer Research : BCR, 2014).

System: MCF-7 breast cancer cells
Experiment: Microarray gene expression analysis (Agilent whole human genome 4 x 44K; compound vs DMSO, LIMMA log2 fold change)
Assay type: cell-based

Compound: Cn1ncc2c(N3CCOCC3)nc(-c3cccc(O)c3)nc21 [ETP-45658]
- BCL11B log2FC (Apoptosis genes, Gene 64919): 0.176
- MRPL41 log2FC (Apoptosis genes, Gene 64975): -0.545
- PINK1 log2FC (Apoptosis genes, Gene 65018): 1.625
- PRAMEF1 log2FC (Apoptosis genes, Gene 65121): -0.072
- PRAMEF2 log2FC (Apoptosis genes, Gene 65122): 0.062
- UBE2Z log2FC (Apoptosis genes, Gene 65264): -0.414
- TMEM109 log2FC (Apoptosis genes, Gene 79073): -0.626
- CHAC1 log2FC (Apoptosis genes, Gene 79094): -0.144
- TNIP2 log2FC (Apoptosis genes, Gene 79155): -0.126
- PLEKHF1 log2FC (Apoptosis genes, Gene 79156): -0.469
- THOC6 log2FC (Apoptosis genes, Gene 79228): -0.373
- BCL2L14 log2FC (Apoptosis genes, Gene 79370): -0.145
- BIRC7 log2FC (Apoptosis genes, Gene 79444): -0.043
- ELMO3 log2FC (Apoptosis genes, Gene 79767): -0.597
- SLTM log2FC (Apoptosis genes, Gene 79811): 0.763
- ZC3H12A log2FC (Apoptosis genes, Gene 80149): -1.168
- RNF34 log2FC (Apoptosis genes, Gene 80196): -0.174
- ELL3 log2FC (Apoptosis genes, Gene 80237): 1.095
- CPEB4 log2FC (Apoptosis genes, Gene 80315): 0.577
- COL18A1 log2FC (Apoptosis genes, Gene 80781): -0.387
- SGPP1 log2FC (Apoptosis genes, Gene 81537): -0.165
- SHARPIN log2FC (Apoptosis genes, Gene 81858): -0.232
- APH1B log2FC (Apoptosis genes, Gene 83464): -0.559
- RASSF5 log2FC (Apoptosis genes, Gene 83593): -0.091
- SOX7 log2FC (Apoptosis genes, Gene 83595): -0.214
- BCL2L12 log2FC (Apoptosis genes, Gene 83596): -0.236
- ITCH log2FC (Apoptosis genes, Gene 83737): 0.721
- CDCA7 log2FC (Apoptosis genes, Gene 83879): 0.213
- TATDN1 log2FC (Apoptosis genes, Gene 83940): 0.636
- TM2D1 log2FC (Apoptosis genes, Gene 83941): 0.088
- OBSCN log2FC (Apoptosis genes, Gene 84033): 0.277
- TRAF7 log2FC (Apoptosis genes, Gene 84231): -0.191
- RHBDD1 log2FC (Apoptosis genes, Gene 84236): -0.533
- TCHP log2FC (Apoptosis genes, Gene 84260): 0.198
- ZDHHC16 log2FC (Apoptosis genes, Gene 84287): -0.471
- ING5 log2FC (Apoptosis genes, Gene 84289): -0.932
- AKT1S1 log2FC (Apoptosis genes, Gene 84335): -0.939
- CARD11 log2FC (Apoptosis genes, Gene 84433): 0.083
- SYVN1 log2FC (Apoptosis genes, Gene 84447): 0.455
- ZC3H8 log2FC (Apoptosis genes, Gene 84524): 1.519
- FNDC1 log2FC (Apoptosis genes, Gene 84624): -0.102
- CARD6 log2FC (Apoptosis genes, Gene 84674): 0.198
- HINT2 log2FC (Apoptosis genes, Gene 84681): -0.153
- BEX2 log2FC (Apoptosis genes, Gene 84707): 0.736
- TNS4 log2FC (Apoptosis genes, Gene 84951): -1.366
- ATG4D log2FC (Apoptosis genes, Gene 84971): -0.461
- SCRT2 log2FC (Apoptosis genes, Gene 85508): -0.569
- WNT3A log2FC (Apoptosis genes, Gene 89780): -0.585
- FGD3 log2FC (Apoptosis genes, Gene 89846): 0.596
- UNC5A log2FC (Apoptosis genes, Gene 90249): -0.468
- BMF log2FC (Apoptosis genes, Gene 90427): 2.299
- MTDH log2FC (Apoptosis genes, Gene 92140): 0.563
- TIMM50 log2FC (Apoptosis genes, Gene 92609): -0.439
- TP53INP1 log2FC (Apoptosis genes, Gene 94241): 0.920
- EGLN2 log2FC (Apoptosis genes, Gene 112398): 0.272
- EGLN3 log2FC (Apoptosis genes, Gene 112399): -0.474
- PNMA5 log2FC (Apoptosis genes, Gene 114824): 0.435
- SLC5A11 log2FC (Apoptosis genes, Gene 115584): 0.136
- TWIST2 log2FC (Apoptosis genes, Gene 117581): -0.722
- RFFL log2FC (Apoptosis genes, Gene 117584): -0.488
- FGD4 log2FC (Apoptosis genes, Gene 121512): 0.637
- RXFP2 log2FC (Apoptosis genes, Gene 122042): -0.049
- DCUN1D3 log2FC (Apoptosis genes, Gene 123879): -1.081
- ACVR1C log2FC (Apoptosis genes, Gene 130399): 0.259
- IL31RA log2FC (Apoptosis genes, Gene 133396): 0.071
- JMY log2FC (Apoptosis genes, Gene 133746): 1.016
- UNC5D log2FC (Apoptosis genes, Gene 137970): 0.118
- DYNLL2 log2FC (Apoptosis genes, Gene 140735): -0.697
- PSMA8 log2FC (Apoptosis genes, Gene 143471): 0.068
- TICAM1 log2FC (Apoptosis genes, Gene 148022): -0.493
- BNIPL log2FC (Apoptosis genes, Gene 149428): -0.061
- ZSWIM2 log2FC (Apoptosis genes, Gene 151112): 0.088
- DAB2IP log2FC (Apoptosis genes, Gene 153090): -0.220
- SLC5A8 log2FC (Apoptosis genes, Gene 160728): -0.070
- PTCRA log2FC (Apoptosis genes, Gene 171558): -0.425
- HIGD2A log2FC (Apoptosis genes, Gene 192286): -0.398
- FLCN log2FC (Apoptosis genes, Gene 201163): 0.968
- HIPK1 log2FC (Apoptosis genes, Gene 204851): -0.153
- UNC5B log2FC (Apoptosis genes, Gene 219699): -0.570
- RNF152 log2FC (Apoptosis genes, Gene 220441): -0.038
- FGD2 log2FC (Apoptosis genes, Gene 221472): -0.102
- MPV17L log2FC (Apoptosis genes, Gene 255027): -0.367
- TMEM23 log2FC (Apoptosis genes, Gene 259230): 0.357
- MAGI3 log2FC (Apoptosis genes, Gene 260425): 0.325
- BLOC1S2 log2FC (Apoptosis genes, Gene 282991): 0.498
- NRBP2 log2FC (Apoptosis genes, Gene 340371): -0.074
- NANOS3 log2FC (Apoptosis genes, Gene 342977): -0.124
- AMIGO2 log2FC (Apoptosis genes, Gene 347902): 0.532
- C6orf120 log2FC (Apoptosis genes, Gene 387263): -0.615
- GDF6 log2FC (Apoptosis genes, Gene 392255): -0.089
- MYO18A log2FC (Apoptosis genes, Gene 399687): -0.470
- PRAMEF3 log2FC (Apoptosis genes, Gene 401940): -0.272
- ADIPOQ log2FC (Apoptosis genes, Gene 414149): -0.245
- PIM3 log2FC (Apoptosis genes, Gene 415116): 0.693
- LGALS7 log2FC (Apoptosis genes, Gene 653499): -0.163
- CARD9 log2FC (Apoptosis genes, Gene 728489): -0.457
- PDCD6 log2FC (Apoptosis genes, Gene 728613): -0.285
- RRN3 log2FC (Apoptosis genes, Gene 730092): 0.619
- CD24 log2FC (Apoptosis genes, Gene 100133941): 0.127
- ACVR1 log2FC (Gene 90, cell cycle genes): 0.534
- ACVR1B log2FC (Gene 91, cell cycle genes): -0.563
- ADCYAP1 log2FC (Gene 116, cell cycle genes): 0.068
- AHR log2FC (Gene 196, cell cycle genes): 0.995
- AIF1 log2FC (Gene 199, cell cycle genes): -0.077
- AK1 log2FC (Gene 203, cell cycle genes): -0.344
- AKT1 log2FC (Gene 207, cell cycle genes): -0.608
- AKT2 log2FC (Gene 208, cell cycle genes): -0.554
- ALOX15B log2FC (Gene 247, cell cycle genes): -0.102
- ANK3 log2FC (Gene 288, cell cycle genes): 0.532
- ANXA1 log2FC (Gene 301, cell cycle genes): 0.991
- ANXA11 log2FC (Gene 311, cell cycle genes): -0.496
- APBB1 log2FC (Gene 322, cell cycle genes): 0.078
- APBB2 log2FC (Gene 323, cell cycle genes): -0.357
- APEX1 log2FC (Gene 328, cell cycle genes): 0.266
- BIRC2 log2FC (Gene 329, cell cycle genes): 0.082
- APP log2FC (Gene 351, cell cycle genes): 0.379
- ARF6 log2FC (Gene 382, cell cycle genes): -0.682
- RHOB log2FC (Gene 388, cell cycle genes): -0.133
- RHOC log2FC (Gene 389, cell cycle genes): -0.491
- ARL2 log2FC (Gene 402, cell cycle genes): -0.140
- ARL3 log2FC (Gene 403, cell cycle genes): 0.192
- ASNS log2FC (Gene 440, cell cycle genes): -0.404
- BACH1 log2FC (Gene 571, cell cycle genes): 0.774
- BARD1 log2FC (Gene 580, cell cycle genes): 0.487
- BBS4 log2FC (Gene 585, cell cycle genes): 1.207
- CCND1 log2FC (Gene 595, cell cycle genes): -1.564
- BCL2 log2FC (Gene 596, cell cycle genes): -0.310
- BCL2L1 log2FC (Gene 598, cell cycle genes): -0.991
- BCR log2FC (Gene 613, cell cycle genes): -0.914
- BID log2FC (Gene 637, cell cycle genes): -0.095
- BMP2 log2FC (Gene 650, cell cycle genes): -0.038
- BMP7 log2FC (Gene 655, cell cycle genes): -0.344
- DST log2FC (Gene 667, cell cycle genes): 0.571
- BRCA1 log2FC (Gene 672, cell cycle genes): 0.792
- BRDT log2FC (Gene 676, cell cycle genes): 0.068
- BUB1 log2FC (Gene 699, cell cycle genes): 0.803
- CALM1 log2FC (Gene 801, cell cycle genes): 0.216
- CALR log2FC (Gene 811, cell cycle genes): -0.081
- CAMK2A log2FC (Gene 815, cell cycle genes): 0.024
- CAMK2D log2FC (Gene 817, cell cycle genes): 0.613
- CAMK2G log2FC (Gene 818, cell cycle genes): 0.874
- CASP2 log2FC (Gene 835, cell cycle genes): -0.918
- CAV2 log2FC (Gene 858, cell cycle genes): 0.696
- RUNX3 log2FC (Gene 864, cell cycle genes): -0.494
- CCNA2 log2FC (Gene 890, cell cycle genes): -0.047
- CCNB1 log2FC (Gene 891, cell cycle genes): 0.072
- CCNC log2FC (Gene 892, cell cycle genes): 0.257
- CCND2 log2FC (Gene 894, cell cycle genes): -1.006
- CCND3 log2FC (Gene 896, cell cycle genes): -0.730
- CCNE1 log2FC (Gene 898, cell cycle genes): -0.471
- CCNG1 log2FC (Gene 900, cell cycle genes): 0.908
- CCNG2 log2FC (Gene 901, cell cycle genes): 3.913
- CD28 log2FC (Gene 940, cell cycle genes): 0.087
- CDC5L log2FC (Gene 988, cell cycle genes): 1.004
- CDC6 log2FC (Gene 990, cell cycle genes): -0.800
- CDC20 log2FC (Gene 991, cell cycle genes): -0.346
- CDC25A log2FC (Gene 993, cell cycle genes): -1.970
